What was measured:
Type in all cases: in vivo
Setaria viridis = assay: Weeding effect in post-emergence stage, greenhouse pot spray
Source text: (§1) The activity level criteria for plant damage (i.e., growth control rate) are as follows: • Level 5: growth control rate is above 85%; • Level 4: growth control rate is greater than or equal to 60% and less than 85%; • Level 3: growth control rate is greater than or equal to 40% and less than 60%; • Level 2: growth control rate is greater than or equal to 20% and less than 40%; • Level 1: growth control rate is greater than or equal to 5% and less than 20%; • Level 0: growth control rate is less than 5%.
(§2) The above growth control rates are fresh weight control rates.
(§3) (1) Experiment on weeding effect in post-emergence stage: monocotyledonous and dicotyledonous weed seeds and major crop seeds (wheat, corn, rice, soybean, cotton, oilseed rape, millet, Sorghum) were placed in plastic pots filled with soil, then covered with 0.5-2 cm of soil, allowed to grow in a good greenhouse environment. After 2 weeks of sowing, the test plants were treated. The tested compounds of the present invention were respectively dissolved in acetone, then added with Tween 80, diluted with a certain amount of water to obtain a solution with a certain concentration, added with 1000 g/ha of emulsified methyl oleate as a synergist, and sprayed with a spray tower onto the plants. After the application, the plants were cultured for 3 weeks in the greenhouse, and then the experimental results of the weeding were listed in Table 2-3.

Echinochloa crusgalli [1] = assay: as above
Description: as §2, §3

Digitaria sanguinalis [2] = assay: as above
Description: as §2, §3

Leptochloa chinensis [3] = assay: as above
Description: as §2, §3

[4] = system: Amaranthus retroflexus L.; assay: as above; conditions: 240 g/ha active ingredient, plus water 450 kg/ha; weeds 2-3 leaf stage; 3 weeks after application
Description: as §2, §3

japonica rice = assay: Post-emergence stage crop damage, greenhouse pot spray
Source text: as §1, §2, §3

Echinochloa crusgalli [5] = assay: Weed effect in pre-emergence stage; conditions: direct seeding of rice; dose not given
Description: (§4) Seeds of monocotyledonous and dicotyledonous weeds and main crops (e.g. wheat, corn, rice, soybean, cotton, oilseed rape, millet and Sorghum) were put into a plastic pot loaded with soil and covered with 0.5-2 cm soil. The test compounds of the present invention was dissolved with acetone, then added with tween 80, diluted by a certain amount of water to reach a certain concentration, and sprayed immediately after sowing. The obtained seeds were incubated for 4 weeks in the greenhouse after spraying and the test results were observed. It was observed that the herbicide mostly had excellent effect at the application rate of 250 g a.i./ha, especially to weeds such as Echinochloa crusgalli, Digitaria sanguinalis, Leptochloa chinensis, and Abutilon theophrasti, etc. . . . And many compounds had good selectivity for corn, wheat, rice, soybean, and oilseed rape, etc. . . .

Digitaria sanguinalis [6] = assay: Weed effect in pre-emergence stage; conditions: direct seeding of rice; dose not given
Description: as §4

Leptochloa chinensis [7] = assay: Weed effect in pre-emergence stage; conditions: direct seeding of rice; dose not given
Description: as §4

Abutilon theophrasti = assay: Weed effect in pre-emergence stage; conditions: direct seeding of rice; dose not given
Description: as §4

[8] = system: rice (indica rice huanghuazhan); assay: Post-emergence stage crop damage, greenhouse pot spray; conditions: for plant damage level, rice (indica rice huanghuazhan), post-emergence: 240 g/ha active ingredient, plus water 450 kg/ha, 3 weeks after application
Description: as §3

rice = assay: Pre-emergence stage crop selectivity; conditions: dose not given
Description: as §4

[9] = 240 g/ha active ingredient, plus water 450 kg/ha, weeds 2-3 leaf stage, 3 weeks after application

Structure (SMILES) | weeding effect in post-emergence stage, Setaria viridis (activity level) (Setaria viridis; Dose 30 g/ha) | weeding effect in post-emergence stage, Setaria viridis (activity level) (Setaria viridis; Dose 60 g/ha) | weeding effect in post-emergence stage, Setaria viridis (activity level) (Setaria viridis; Dose 120 g/ha) | weeding effect in post-emergence stage, Echinochloa crusgalli (activity level) (Echinochloa crusgalli [1]; [9]) | weeding effect in post-emergence stage, Echinochloa crusgalli (activity level) (Echinochloa crusgalli [1]; Dose 30 g/ha) | weeding effect in post-emergence stage, Echinochloa crusgalli (activity level) (Echinochloa crusgalli [1]; Dose 60 g/ha) | weeding effect in post-emergence stage, Echinochloa crusgalli (activity level) (Echinochloa crusgalli [1]; Dose 120 g/ha) | weeding effect in post-emergence stage, Digitaria sanguinalis (activity level) (Digitaria sanguinalis [2]; [9]) | weeding effect in post-emergence stage, Digitaria sanguinalis (activity level) (Digitaria sanguinalis [2]; Dose 30 g/ha) | weeding effect in post-emergence stage, Digitaria sanguinalis (activity level) (Digitaria sanguinalis [2]; Dose 60 g/ha) | weeding effect in post-emergence stage, Digitaria sanguinalis (activity level) (Digitaria sanguinalis [2]; Dose 120 g/ha) | weeding effect in post-emergence stage, Leptochloa chinensis (activity level) (Leptochloa chinensis [3]; [9]) | weeding effect in post-emergence stage, Leptochloa chinensis (activity level) (Leptochloa chinensis [3]; Dose 30 g/ha) | weeding effect in post-emergence stage, Leptochloa chinensis (activity level) (Leptochloa chinensis [3]; Dose 60 g/ha) | weeding effect in post-emergence stage, Leptochloa chinensis (activity level) (Leptochloa chinensis [3]; Dose 120 g/ha) | weeding effect in post-emergence stage, Amaranthus retroflexus L. (activity level) [4] | plant damage level, japonica rice, post-emergence (japonica rice; Dose 30 g/ha) | plant damage level, japonica rice, post-emergence (japonica rice; Dose 60 g/ha) | plant damage level, japonica rice, post-emergence (japonica rice; Dose 120 g/ha) | plant damage level, rice (indica rice huanghuazhan), post-emergence [8] | also measured
O=C1CCCC(=O)C1C(=O)c1ccn2c(C3CC3)nnc2c1Cl [Compound 2] | 5 (Level 5: growth control rate is above 85%) | 5 (Level 5: growth control rate is above 85%) | 5 (Level 5: growth control rate is above 85%) | 5 (Level 5: growth control rate is above 85%) | 5 (Level 5: growth control rate is above 85%) | 5 (Level 5: growth control rate is above 85%) | 5 (Level 5: growth control rate is above 85%) | 5 (Level 5: growth control rate is above 85%) | 5 (Level 5: growth control rate is above 85%) | 5 (Level 5: growth control rate is above 85%) | 5 (Level 5: growth control rate is above 85%) | 5 (Level 5: growth control rate is above 85%) | 5 (Level 5: growth control rate is above 85%) | 5 (Level 5: growth control rate is above 85%) | 5 (Level 5: growth control rate is above 85%) | 5 (Level 5: growth control rate is above 85%) | 0 (Level 0: growth control rate is less than 5%) | 0 (Level 0: growth control rate is less than 5%) | 0 (Level 0: growth control rate is less than 5%) | 0 (Level 0: growth control rate is less than 5%) | sealing effects on Echinochloa crusgalli, pre-emergence (Echinochloa crusgalli [5]): excellent sealing effects; sealing effects on Digitaria sanguinalis, pre-emergence (Digitaria sanguinalis [6]): excellent sealing effects; sealing effects on Leptochloa chinensis, pre-emergence (Leptochloa chinensis [7]): excellent sealing effects; sealing effects on Abutilon theophrasti, pre-emergence (Abutilon theophrasti): excellent sealing effects; plant damage level, indica rice, post-emergence ([8]; Dose 30 g/ha): 0 (Level 0: growth control rate is less than 5%); plant damage level, indica rice, post-emergence ([8]; Dose 60 g/ha): 0 (Level 0: growth control rate is less than 5%); plant damage level, indica rice, post-emergence ([8]; Dose 120 g/ha): 0 (Level 0: growth control rate is less than 5%); safety for direct seeding of rice, pre-emergence (rice): safe and efficient
O=C1CCCC(=O)C1C(=O)c1ccn2c(C3CC3(F)F)nnc2c1Cl (centres unmarked) [Compound 87] |  |  |  | 4 (Level 4: growth control rate is greater than or equal to 60% and less than 85%) |  |  |  | 4 (Level 4: growth control rate is greater than or equal to 60% and less than 85%) |  |  |  | 5 (Level 5: growth control rate is above 85%) |  |  |  | 5 (Level 5: growth control rate is above 85%) |  |  |  | 0 (Level 0: growth control rate is less than 5%) | 
COc1nnc2c(Cl)c(C(=O)C3C(=O)CCCC3=O)ccn12 [Compound 114] |  |  |  | 5 (Level 5: growth control rate is above 85%) |  |  |  | 5 (Level 5: growth control rate is above 85%) |  |  |  | 5 (Level 5: growth control rate is above 85%) |  |  |  | 5 (Level 5: growth control rate is above 85%) |  |  |  | 0 (Level 0: growth control rate is less than 5%) | 
CSc1nnc2c(Cl)c(C(=O)C3C(=O)CCCC3=O)ccn12 [Compound 118] |  |  |  | 5 (Level 5: growth control rate is above 85%) |  |  |  | 5 (Level 5: growth control rate is above 85%) |  |  |  | 5 (Level 5: growth control rate is above 85%) |  |  |  | 5 (Level 5: growth control rate is above 85%) |  |  |  | 0 (Level 0: growth control rate is less than 5%) | 
O=C(c1ccn2c(C3CC3)nnc2c1Cl)C1C(=O)C2CCC(C2)C1=O (centres unmarked) [Compound 274] | 5 (Level 5: growth control rate is above 85%) | 5 (Level 5: growth control rate is above 85%) | 5 (Level 5: growth control rate is above 85%) | 5 (Level 5: growth control rate is above 85%) | 5 (Level 5: growth control rate is above 85%) | 5 (Level 5: growth control rate is above 85%) | 5 (Level 5: growth control rate is above 85%) | 5 (Level 5: growth control rate is above 85%) | 5 (Level 5: growth control rate is above 85%) | 5 (Level 5: growth control rate is above 85%) | 5 (Level 5: growth control rate is above 85%) | 5 (Level 5: growth control rate is above 85%) | 5 (Level 5: growth control rate is above 85%) | 5 (Level 5: growth control rate is above 85%) | 5 (Level 5: growth control rate is above 85%) | 5 (Level 5: growth control rate is above 85%) | 0 (Level 0: growth control rate is less than 5%) | 0 (Level 0: growth control rate is less than 5%) | 0 (Level 0: growth control rate is less than 5%) | 0 (Level 0: growth control rate is less than 5%) | sealing effects on Echinochloa crusgalli, pre-emergence (Echinochloa crusgalli [5]): excellent sealing effects; sealing effects on Digitaria sanguinalis, pre-emergence (Digitaria sanguinalis [6]): excellent sealing effects; sealing effects on Leptochloa chinensis, pre-emergence (Leptochloa chinensis [7]): excellent sealing effects; sealing effects on Abutilon theophrasti, pre-emergence (Abutilon theophrasti): excellent sealing effects; plant damage level, indica rice, post-emergence ([8]; Dose 30 g/ha): 0 (Level 0: growth control rate is less than 5%); plant damage level, indica rice, post-emergence ([8]; Dose 60 g/ha): 0 (Level 0: growth control rate is less than 5%); plant damage level, indica rice, post-emergence ([8]; Dose 120 g/ha): 0 (Level 0: growth control rate is less than 5%); safety for direct seeding of rice, pre-emergence (rice): safe and efficient

Reference: US12240843B2, “Substituted 1,2,4-triazolo[4,3-a]pyridine derivative and preparation method, herbicidal composition and application thereof” (Qingdao Kingagroot Chemical Compound Co., Ltd., priority 2019, dated 2025)
